Where a name gives a salt, the structure may show the parent alone.
What was measured:
[1] = target: T1, rabbit reticulocyte cells-induced 15-lipoxygenase (Oryctolagus cuniculus, UniProt P12530); assay: In-vitro test on inhibitory effect on 15-lipoxygenase (13-HPODE formation, absorbance 660 nm); format: biochemical; conditions: compound 10 uM; 260 μM linolenic acid; 4° C.; PBS pH 7.4; read-out: 15-lipoxygenase Inhibitory level at 10 uM (%)
T1 construct: rabbit reticulocyte cells-induced 15-lipoxygenase as a test group; from tissue; host or cells: rabbit reticulocytes
T1 sequence (P12530 1-663): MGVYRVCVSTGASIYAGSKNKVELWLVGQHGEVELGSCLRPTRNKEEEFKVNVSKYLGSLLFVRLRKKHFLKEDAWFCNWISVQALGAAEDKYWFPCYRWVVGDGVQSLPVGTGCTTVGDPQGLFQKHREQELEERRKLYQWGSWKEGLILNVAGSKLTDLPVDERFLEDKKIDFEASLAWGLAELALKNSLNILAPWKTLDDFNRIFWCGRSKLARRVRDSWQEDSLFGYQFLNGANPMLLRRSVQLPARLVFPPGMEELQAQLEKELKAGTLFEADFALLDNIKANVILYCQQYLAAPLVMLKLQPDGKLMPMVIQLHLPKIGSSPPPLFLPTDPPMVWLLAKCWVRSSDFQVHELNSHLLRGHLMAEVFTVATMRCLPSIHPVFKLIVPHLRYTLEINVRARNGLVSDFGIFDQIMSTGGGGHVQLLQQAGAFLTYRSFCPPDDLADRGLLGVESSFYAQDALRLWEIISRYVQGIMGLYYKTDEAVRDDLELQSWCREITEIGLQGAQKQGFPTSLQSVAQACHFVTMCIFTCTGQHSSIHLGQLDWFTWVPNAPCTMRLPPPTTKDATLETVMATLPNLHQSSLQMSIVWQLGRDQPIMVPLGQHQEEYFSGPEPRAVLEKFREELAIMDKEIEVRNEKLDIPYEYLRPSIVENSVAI
Protocol: (§1) 12-lipoxygenase reacts with arachidonate as a substrate to produce 12-hydroxyeicosatetrenoate (12-HETE) as a product. Accordingly, 12-lipoxygenase activity is evaluated by measuring an amount of generated 12-HETE by spectrometry. Also, 15-lipoxygenase reacts with a linolenic acid as a substrate to produce 13-hydroperoxy-9,11-octadecadienoic acid (13-HPODE) as a product. Accordingly, 15-lipoxygenase activity is evaluated by measuring an amount of generated 13-HPODE by spectrometry.
15-lipoxygenase activity was measured when a concentration of each of the compounds was 10 μM. Each sample was pretreated by using a buffer solution buffer solution (phosphate buffered saline buffer, pH 7.4) at a temperature of 4° C. for 15 minutes, and then 260 μM linolenic acid (a concentration thereof was controlled to be 260 μM during reaction) was added and reacted at a temperature of 4° C. for 10 minutes, and an amount of 13-HPODE as a generated product was measured by absorbance at a wavelength of 660 nm.

[2] = target: T2, human platelet-induced 12-lipoxygenase (Homo sapiens, UniProt P18054); assay: In-vitro test on inhibitory effect on 12-lipoxygenase (12-HETE formation, absorbance 570 nm); format: biochemical; conditions: compound 10 uM; 30 μM arachidonate; 25° C.; Tris-HCl pH 7.4; read-out: 12-lipoxygenase Inhibitory level at 10 uM (%)
T2 construct: human platelet-induced 12-lipoxygenase as a negative control; from tissue; host or cells: human platelets
T2 sequence (P18054 1-663): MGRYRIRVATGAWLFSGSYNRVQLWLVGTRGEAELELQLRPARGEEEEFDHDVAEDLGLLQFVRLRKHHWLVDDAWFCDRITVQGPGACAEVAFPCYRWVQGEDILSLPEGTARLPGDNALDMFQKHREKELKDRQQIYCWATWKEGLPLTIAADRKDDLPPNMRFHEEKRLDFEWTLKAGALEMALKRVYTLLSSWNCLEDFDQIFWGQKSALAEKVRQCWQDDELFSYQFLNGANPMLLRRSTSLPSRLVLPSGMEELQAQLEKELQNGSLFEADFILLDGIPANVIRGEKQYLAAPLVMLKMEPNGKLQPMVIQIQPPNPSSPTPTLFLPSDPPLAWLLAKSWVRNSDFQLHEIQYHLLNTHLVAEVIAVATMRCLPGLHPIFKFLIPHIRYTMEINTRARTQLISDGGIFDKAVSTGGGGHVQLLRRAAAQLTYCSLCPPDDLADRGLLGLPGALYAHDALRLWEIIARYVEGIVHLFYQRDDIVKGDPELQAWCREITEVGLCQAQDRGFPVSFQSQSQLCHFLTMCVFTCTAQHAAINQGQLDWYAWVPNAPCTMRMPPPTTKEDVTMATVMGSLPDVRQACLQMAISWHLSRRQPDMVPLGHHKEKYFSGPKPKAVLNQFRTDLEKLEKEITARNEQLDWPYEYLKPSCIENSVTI
Protocol: as §1
12-lipoxygenase activity was measured when a concentration of each of the compounds was 10 μM. Each sample was pretreated by using a buffer solution (50 mM Tris-HCl, 0.1% Triton X-100, pH 7.4) at a temperature of 25° C. for 15 minutes and then, 30 μM arachidonate (a concentration thereof was controlled to be 30 μM during reaction) was added thereto and reacted at a temperature of 25° C. for 15 minutes, and an amount of 12-HETE as a generated product was measured by absorbance at a wavelength of 570 nm.

PAI-1 = assay: Pharmaceutical effect test on inflammatory reaction in diabetic nephropathy model: PAI-1 mRNA in renal cortex; format: in vivo, rat; conditions: streptozotocin-diabetic rats; 200 mg/kg orally once a day for 4 weeks; untreated diabetic 1.8±0.1 times control
[3] = system: Sprague-Dawley rats having diabetes induced by streptozotocin; assay: Pharmaceutical effect test on diabetic hyperlipidemia in diabetes animal model (streptozotocin); format: in vivo, rat; conditions: 200 mg/kg orally once a day for four weeks
Protocol: Sprague-Dawley rats (n=21, 4 weeks, male) were used as lab models (Central Lab. Animal Inc.). Rats (n=14) having diabetes induced by intraperitoneal administration of 50 mg/kg of streptozotocin were used as a test group, and rats (n=7) intraperitoneally administered with only a solvent (100 mM citric acid buffer solution, pH 4.5) were used as a control. Typically, streptozotocin destroys beta cells of the pancreas to induce diabetes, and thus, blood sugar is increased and amounts of cholesterol and triglycerides in serum are increased. 2 days after the administration of streptozotocin, diabetes was induced in the test group. The test group was divided into two groups, and rats of one group were orally administered once a day with 200 mg/kg of (R)-carbamic acid 3-[4-(3,4-dimethoxy-phenyl)-piperazine-1-yl]-3-oxo-1-phenyl-propyl ester for four weeks. The other group was orally administered with 30% polyethylene glycol (PEG) instead of the compound.
After the 4-week administration of the compound and PEG, amounts of total cholesterol and triglycerides in serum of each of the groups were measured and results thereof are shown in FIGS. 1 and 2. In order to measure the amounts of total cholesterol and triglycerides, serum was isolated from the rats and a Hitachi 7600 auto-analyzer was used.

TGF-β1 = assay: Pharmaceutical effect test on inflammatory reaction in diabetic nephropathy model: TGF-β1 mRNA in renal cortex; format: in vivo, rat; conditions: streptozotocin-diabetic rats; 200 mg/kg orally once a day for 4 weeks; untreated diabetic 1.6±0.2 times control
fibronectin = assay: Pharmaceutical effect test on diabetic nephropathy: fibronectin expression in renal cortex by real-time RT-PCR; format: in vivo, rat; conditions: streptozotocin-diabetic rats; 200 mg/kg orally once a day for 4 weeks; untreated diabetic 1.4±0.1 times control
Protocol: Sprague-Dawley rats (n=21, 4 weeks, male) were used as lab models (Central Lab. Animal Inc.). Rats (n=14) having diabetes induced by intraperitoneal administration of 50 mg/kg of streptozotocin were used as a test group, and rats (n=7) intraperitoneally administered with only a solvent (100 mM citric acid buffer solution, pH 4.5) were used as a control. Typically, in rats having diabetes induced by streptozotocin, diabetic nephropathy is induced by hyperglycemia, and one of the symptoms is renal fibrosis, and gene expression of an extracellular matrix protein such as fibronectin is increased. 2 days after the administration of streptozotocin, diabetes was induced in the test group. […]
After the 4-week administration of the compound and PEG, renal cortex tissues were extracted from each of the groups and then, an expression level of fibronectin was measured by a real-time reverse transcription polymerase chain reaction (that is, an amount of mRNA transcribed from fibronectin) (see FIG. 3). The expression level of fibronectin was measured by using a forward primer (5′-[…]-3′; SEQ ID NO: 1) and a reverse primer (5′-[…]-3′; SEQ ID NO: 2). […] For the control, mRNA transcribed from a beta actin gene was used, and measurement results were indicated by dividing an amount of mRNA of fibronectin quantified from the RT-PCT results by an amount of mRNA of beta actin. […]

MCP-1 = assay: Pharmaceutical effect test on inflammatory reaction in diabetic nephropathy model: MCP-1 mRNA in renal cortex; format: in vivo, rat; conditions: streptozotocin-diabetic rats; 200 mg/kg orally once a day for 4 weeks; untreated diabetic 3.4±1.0 times control

Row | Structure (SMILES) | inhibition at 10 µM [1] [%] | inhibition at 10 µM [2] [%] | other results
1 | COc1ccc(N2CCN(C(=O)C[C@@H](OC(N)=O)c3ccccc3)CC2)cc1OC [Example 8, (R)-carbamic acid 3-[4-(3,4-dimethoxy-phenyl)-piperazine-1-yl]-3-oxo-1-phenyl-propyl ester] | 79 | 15 | expression level of PAI-1 gene in the renal cortex relative to control (PAI-1): 1.1±0.2 times; concentration of total cholesterol in serum ([3]; untreated diabetic 120±13, control 62±5 mg/dl): 66 ± 9 mg/dL; concentration of triglyceride in serum ([3]; untreated diabetic 760±162 mg/dl): 126 ± 44 mg/dL; expression level of TGF-β1 gene in the renal cortex relative to control (TGF-β1): 1.3±0.2 times; expression level of fibronectin of the renal cortex (mRNA / beta actin mRNA) relative to control (fibronectin): 1.2±0.1 times; expression level of MCP-1 gene in the renal cortex relative to control (MCP-1): 1.6±0.3 times
2 | COc1ccc(N2CCN(C(=O)CC(OC(N)=O)c3ccc([N+](=O)[O-])cc3)CC2)cc1OC (centres unmarked) [Example 5, carbamic acid 3-[4-(3,4-dimethoxy-phenyl)-piperazine-1-yl]-1-(4-nitro-phenyl)-3-oxo-propyl ester] | 75 | 0 | –
3 | COc1ccc(N2CCN(C(=O)C[C@H](OC(N)=O)c3ccccc3)CC2)cc1OC [Example 7, (S)-carbamic acid 3-[4-(3,4-dimethoxy-phenyl)-piperazine-1-yl]-3-oxo-1-phenyl-propyl ester] | 69 | 2 | –
4 | COc1ccc(N2CCN(C(=O)CC(OC(N)=O)c3ccc(F)cc3)CC2)cc1OC (centres unmarked) [Example 2, carbamic acid 3-[4-(3,4-dimethoxy-phenyl)-piperazine-1-yl]-1-(4-fluoro-phenyl)-3-oxo-propyl ester] | 69 | -5 | –
5 | COc1ccc(N2CCN(C(C)CC(OC(N)=O)c3ccccc3)CC2)cc1OC (centres unmarked) [Example 9, carbamic acid 3-[4-(3,4-dimethoxy-phenyl)-piperazine-1-yl]-1-phenyl-butyl ester] | 62 | 0 | –
6 | COc1ccc(N2CCN(C(=O)CC(OC(N)=O)c3ccc(C(F)(F)F)cc3)CC2)cc1OC (centres unmarked) [Example 4, carbamic acid 3-[4-(3,4-dimethoxy-phenyl)-piperazine-1-yl]-1-(4-trifluoromethyl-phenyl)-3-oxo-propyl ester; hydrochloride] | 48 | 0 | –
7 | NC(=O)OC(CC(=O)N1CCN(c2ccc3c(c2)OCO3)CC1)c1ccccc1 (centres unmarked) [Example 3, carbamic acid 3-(4-benzo[1,3]dioxol-5-yl-piperazine-1-yl)-3-oxo-1-phenyl-propyl ester] | 85 | -8 | –
8 | COc1ccc(N2CCN(C(=O)CC(OC(N)=O)c3ccccc3)CC2)cc1OC (centres unmarked) [Example 1, carbamic acid 3-[4-(3,4-dimethoxy-phenyl)-piperazine-1-yl]-3-oxo-1-phenyl-propyl ester] | 73 | 10 | –
9 | NC(=O)O[C@H](CC(=O)N1CCN(c2ccc(Cl)cc2)CC1)c1ccccc1 [Example 6, (R)-carbamic acid 3-[4-(4-chloro-phenyl)-piperazine-1-yl]-3-oxo-1-phenyl-propyl ester] | 114 | 11 | –
10 | COc1ccc(N2CCN(C(=O)CC(OC(N)=O)c3ccc(Cl)cc3)CC2)cc1OC (centres unmarked) [Example 10, carbamic acid 3-[4-(3,4-dimethoxy-phenyl)-piperazine-1-yl]-1-(4-chloro-phenyl)-3-oxo-propyl ester] | 72 | 7 | –
